Source: US12239643B2, “Therapeutic agent for inflammatory diseases, autoimmune diseases, fibrotic diseases, and cancer diseases” (MEIJI SEIKA PHARMA CO., LTD., priority 2018, dated 2025)
pIC50: −log10 of the molar value.

test system: PDE4; assay: Evaluation of PDE4 inhibitory activity, scintillation proximity assay; assay type: biochemical; details: scintillation proximity assay; class symbols of Evaluation 1; read-out: PDE4 Inhibitory Activity (concentration for the inhibition rate of 50%, IC50), Evaluation 1
Method in brief: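 SPA with [2,8-3H]-cAMP and diluted PDE4 enzyme preparation in 50 mM Tris-HCl pH 7.4, 8.3 mM MgCl2, 1.7 mM EGTA, 3 mg/mL BSA, 120 min at room temperature. Product captured on ZnSO4-containing YSi-SPA beads, scintillation counted; IC50 from inhibition curves vs DMSO control and no-enzyme blank.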

`COC(c1ccc(-c2nccs2)c2oc(N3CC4CCC(C3)N4)nc12)C(F)F` (centres unmarked) [Example 131, 2-(3,8-Diazabicyclo[3.2.1]octan-3-yl)-4-(2,2-difluoro-1-methoxyethyl)-7-(thiazol-2-yl)benzo[d]oxazole] was tested. Which pIC50 did it give?
Its pIC50 is > 7.00.

`CSc1cc(-c2nccs2)c2oc(N3CC4CCCC(C3)N4)nc2c1` [Example 41, 2-(3,9-Diazabicyclo[3.3.1]nonan-3-yl)-5-(methylthio)-7-(thiazol-2-yl)benzo[d]oxazole] was tested. Which pIC50 did it give?
The pIC50 was > 7.00.

How did the pIC50 turn out when `NC(=O)c1cc(-c2nccs2)c2oc(N3CC4CCC(C3)N4)nc2c1` [Example 99, 2-(3,8-Diazabicyclo[3.2.1]octan-3-yl)-7-(thiazol-2-yl)benzo[d]oxazole-5-carboxamide] was run?
The pIC50 was > 7.00.

`CSc1cc(-c2nccs2)c2oc(N3CC4CC(C3)N4)nc2c1` [Example 40, 2-(3,6-Diazabicyclo[3.1.1]heptan-3-yl)-5-(methylthio)-7-(thiazol-2-yl)benzo[d]oxazole] was tested. Which pIC50 did it give?
Its pIC50 is > 7.00.

`FC(F)(F)Oc1cc(-c2nccs2)c2oc(N3CC4CCCC(C3)N4)nc2c1` [Example 55, 2-(3,9-Diazabicyclo[3.3.1]nonan-3-yl)-7-(thiazol-2-yl)-5-(trifluoromethoxy)benzo[d]oxazole] was tested. Which pIC50 did it give?
The pIC50 was > 7.00.

How did the pIC50 turn out when `CC(O)(c1cc(-c2nccs2)c2oc(N3CC4CC(C3)N4)nc2c1)C(F)(F)F` (centres unmarked) [Example 160, 2-(2-(3,6-Diazabicyclo[3.1.1]heptan-3-yl)-7-(thiazol-2-yl)benzo[d]oxazol-5-yl)-1,1,1-trifluoropropan-2-ol] was run?
The pIC50 was > 7.00.

With `FC(F)(F)Oc1c(Cl)cc(-c2nccs2)c2oc(N3CC4CCCC(C3)N4)nc12` [Example 2, 2-(3,9-Diazabicyclo[3.3.1]nonan-3-yl)-5-chloro-7-(thiazol-2-yl)-4-(trifluoromethoxy)benzo[d]oxazole] as the molecule, how does the pIC50 read?
The pIC50 was > 7.00.

`COC(c1cc(-c2nccs2)c2oc(N3CC4CCC(C3)N4)nc2c1)C(F)F` (centres unmarked) [Example 105, 2-(3,8-Diazabicyclo[3.2.1]octan-3-yl)-5-(2,2-difluoro-1-methoxyethyl)-7-(thiazol-2-yl)benzo[d]oxazole] was tested. Which pIC50 did it give?
Its pIC50 is > 7.00.

How did the pIC50 turn out when `CC(O)c1cc(-c2nccs2)c2oc(N3CC4CC(C3)N4)nc2c1` (centres unmarked) [Example 107, 1-(2-(3,6-Diazabicyclo[3.1.1]heptan-3-yl)-7-(thiazol-2-yl)benzo[d]oxazol-5-yl)ethan-1-ol] was run?
Its pIC50 is 6.00 to 7.00.

How did the pIC50 turn out when `CN(C)C(=O)c1ccc(-c2nccs2)c2oc(N3CC4CCC(C3)N4)nc12` [Example 115, 2-(3,8-Diazabicyclo[3.2.1]octan-3-yl)-N,N-dimethyl-7-(thiazol-2-yl)benzo[d]oxazole-4-carboxamide] was run?
Its pIC50 is > 7.00.

How did the pIC50 turn out when `CC(=O)N(C)c1cc(-c2nccs2)c2oc(N3CC4CCC(C3)N4)nc2c1` [Example 101, N-(2-(3,8-diazabicyclo[3.2.1]octan-3-yl)-7-(thiazol-2-yl)benzo[d]oxazol-5-yl)-N-methylacetamide] was run?
The pIC50 was > 7.00.

`OC(c1cc(-c2nccs2)c2oc(N3CC4CCC(C3)N4)nc2c1)C(F)(F)F` (centres unmarked) [Example 139, 1-(2-(3,8-Diazabicyclo[3.2.1]octan-3-yl)-7-(thiazol-2-yl)benzo[d]oxazol-5-yl)-2,2,2-trifluoroethan-1-ol] was tested. Which pIC50 did it give?
Its pIC50 is > 7.00.

How did the pIC50 turn out when `NS(=O)(=O)c1cc(-c2nccs2)c2oc(N3CC4CCCC(C3)N4)nc2c1` [Example 59, 2-(3,9-Diazabicyclo[3.3.1]nonan-3-yl)-7-(thiazol-2-yl)benzo[d]oxazole-5-sulfonamide] was run?
The pIC50 was > 7.00.

How did the pIC50 turn out when `c1csc(-c2cc(OCC3COC3)cc3nc(N4CC5CCC(C4)N5)oc23)n1` [Example 70, 2-(3,8-Diazabicyclo[3.2.1]octan-3-yl)-5-(oxetan-3-ylmethoxy)-7-(thiazol-2-yl)benzo[d]oxazole] was run?
Its pIC50 is > 7.00.

`FC(F)(F)COc1cc(-c2nccs2)c2oc(N3CC4CCC(C3)N4)nc2c1` [Example 66, 2-(3,8-Diazabicyclo[3.2.1]octan-3-yl)-7-(thiazol-2-yl)-5-(2,2,2-trifluoroethoxy)benzo[d]oxazole] was tested. Which pIC50 did it give?
The pIC50 was > 7.00.

`OCc1ccc(-c2nccs2)c2oc(N3CC4CC(C3)N4)nc12` [Example 133, (2-(3,6-Diazabicyclo[3.1.1]heptan-3-yl)-7-(thiazol-2-yl)benzo[d]oxazol-4-yl)methanol] was tested. Which pIC50 did it give?
The pIC50 was > 7.00.

With `CC(O)(c1cc(-c2nccs2)c2oc(N3CC4CCC(C3)N4)nc2c1)C(F)(F)F` (centres unmarked) [Example 159, 2-(2-(3,8-Diazabicyclo[3.2.1]octan-3-yl)-7-(thiazol-2-yl)benzo[d]oxazol-5-yl)-1,1,1-trifluoropropan-2-ol] as the molecule, how does the pIC50 read?
The pIC50 was > 7.00.

How did the pIC50 turn out when `FC(F)(F)c1c(Cl)cc(-n2cccn2)c2oc(N3CC4COCC(C3)N4)nc12` [Example 18, 7-(5-Chloro-7-(1H-pyrazol-1-yl)-4-(trifluoromethyl)benzo[d]oxazol-2-yl)-3-oxa-7,9-diazabicyclo[3.3.1]nonane] was run?
The pIC50 was 6.00 to 7.00.

With `CC(C)c1cc(-c2nccs2)c2oc(N3CC4CC(C3)N4)nc2c1` [Example 22, 2-(3,6-Diazabicyclo[3.1.1]heptan-3-yl)-5-isopropyl-7-(thiazol-2-yl)benzo[d]oxazole] as the molecule, how does the pIC50 read?
Its pIC50 is > 7.00.

`COCCOC(c1cc(-c2nccs2)c2oc(N3CC4CCC(C3)N4)nc2c1)C(F)(F)F` (centres unmarked) [Example 147, 2-(3,8-Diazabicyclo[3.2.1]octan-3-yl)-7-(thiazol-2-yl)-5-(2,2,2-trifluoro-1-(2-methoxyethoxy)ethyl)benzo[d]oxazole] was tested. Which pIC50 did it give?
Its pIC50 is > 7.00.

With `OC(O)(c1cc(-c2nccs2)c2oc(N3CC4CCC(C3)N4)nc2c1)C(F)(F)F` [Example 157, 1-(2-(3,8-Diazabicyclo[3.2.1]octan-3-yl)-7-(thiazol-2-yl)benzo[d]oxazol-5-yl)-2,2,2-trifluoroethane-1,1-diol] as the molecule, how does the pIC50 read?
The pIC50 was > 7.00.

How did the pIC50 turn out when `FC(F)(F)COC(c1cc(-c2nccs2)c2oc(N3CC4CCC(C3)N4)nc2c1)C(F)(F)F` (centres unmarked) [Example 146, 2-(3,8-Diazabicyclo[3.2.1]octan-3-yl)-7-(thiazol-2-yl)-5-(2,2,2-trifluoro-1-(2,2,2-trifluoroethoxy)ethyl)benzo[d]oxazole] was run?
The pIC50 was > 7.00.

same assay, conditions: scintillation proximity assay; read-out: PDE4 Inhibitory Activity (Evaluation 1; concentration for the inhibition rate of 50%)

With `CN(CCO)C(=O)c1cc(-c2nccs2)c2oc(N3CC4CCC(C3)N4)nc2c1OC(F)(F)F` [Example 193, 2-(3,8-Diazabicyclo[3.2.1]octan-3-yl)-N-(2-hydroxyethyl)-N-methyl-7-(thiazol-2-yl)-4-(trifluoromethoxy)benzo[d]oxazole-5-carboxamide] as the molecule, how does the pIC50 read?
Its pIC50 is > 7.00.

With `CC(O)C(F)(F)Oc1ccc(-c2cscn2)c2oc(N3CC4CC(C3)N4)nc12` (centres unmarked) [Example 309, 1-((2-(3,6-Diazabicyclo[3.1.1]heptan-3-yl)-7-(thiazol-4-yl)benzo[d]oxazol-4-yl)oxy)-1,1-difluoropropan-2-ol] as the molecule, how does the pIC50 read?
The pIC50 was > 7.00.

`OC(c1cc(-c2nccs2)c2oc(N3CC4CCC(C3)N4)nc2c1OC(F)(F)F)C(F)F` (centres unmarked) [Example 275, 1-(2-(3,8-Diazabicyclo[3.2.1]octan-3-yl)-7-(thiazol-2-yl)-4-(trifluoromethoxy)benzo[d]oxazol-5-yl)-2,2-difluoroethan-1-ol] was tested. Which pIC50 did it give?
Its pIC50 is > 7.00.

`CC(C)(O)c1cc(-c2cscn2)c2oc(N3CC4CC(C3)N4)nc2c1OC(F)(F)F` [Example 288, 2-(2-(3,6-Diazabicyclo[3.1.1]heptan-3-yl)-7-(thiazol-4-yl)-4-(trifluoromethoxy)benzo[d]oxazol-5-yl)propan-2-ol] was tested. Which pIC50 did it give?
The pIC50 was > 7.00.

How did the pIC50 turn out when `COC(C)(c1cc(-c2nccs2)c2oc(N3CC4CC(C3)N4)nc2c1OC(F)(F)F)C(F)(F)F` (centres unmarked) [Example 214, 2-(3,6-Diazabicyclo[3.1.1]heptan-3-yl)-7-(thiazol-2-yl)-5-(1,1,1-trifluoro-2-methoxypropan-2-yl)-4-(trifluoromethoxy)benzo[d]oxazole] was run?
The pIC50 was > 7.00.

How did the pIC50 turn out when `COC(C)(c1cc(-c2nccs2)c2oc(N3CC4CCC(C3)N4)nc2c1OC(F)(F)F)C(F)(F)F` (centres unmarked) [Example 215, 2-(3,8-Diazabicyclo[3.2.1]octan-3-yl)-7-(thiazol-2-yl)-5-(1,1,1-trifluoro-2-methoxypropan-2-yl)-4-(trifluoromethoxy)benzo[d]oxazole] was run?
Its pIC50 is > 7.00.

How did the pIC50 turn out when `CC(O)(c1ccc(-c2nccs2)c2oc(N3CC4CC(C3)N4)nc12)C(F)(F)F` (centres unmarked) [Example 271, 2-(2-(3,6-Diazabicyclo[3.1.1]heptan-3-yl)-7-(thiazol-2-yl)benzo[d]oxazol-4-yl)-1,1,1-trifluoropropan-2-ol] was run?
The pIC50 was > 7.00.

How did the pIC50 turn out when `COCCOC(c1ccc(-c2nccs2)c2oc(N3CC4CC(C3)N4)nc12)C(F)(F)F` (centres unmarked) [Example 229, 2-(3,6-Diazabicyclo[3.1.1]heptan-3-yl)-7-(thiazol-2-yl)-4-(2,2,2-trifluoro-1-(2-methoxyethoxy)ethyl)benzo[d]oxazole] was run?
The pIC50 was > 7.00.

How did the pIC50 turn out when `CC(C)(O)C(F)(F)Oc1ccc(-c2cscn2)c2oc(N3CC4CCC(C3)N4)nc12` [Example 308, 1-((2-(3,8-Diazabicyclo[3.2.1]octan-3-yl)-7-(thiazol-4-yl)benzo[d]oxazol-4-yl)oxy)-1,1-difluoro-2-methylpropan-2-ol] was run?
The pIC50 was > 7.00.

With `COC(C)c1cc(-c2nccs2)c2oc(N3CC4CC(C3)N4)nc2c1C(F)(F)F` (centres unmarked) [Example 185, 2-(3,6-Diazabicyclo[3.1.1]heptan-3-yl)-5-(1-methoxyethyl)-7-(thiazol-2-yl)-4-(trifluoromethyl)benzo[d]oxazole] as the molecule, how does the pIC50 read?
The pIC50 was > 7.00.

`CC(=O)c1cc(-c2nccs2)c2oc(N3CC4CCC(C3)N4)nc2c1OC(F)(F)F` [Example 213, 1-(2-(3,8-Diazabicyclo[3.2.1]octan-3-yl)-7-(thiazol-2-yl)-4-(trifluoromethoxy)benzo[d]oxazol-5-yl)ethan-1-one] was tested. Which pIC50 did it give?
The pIC50 was > 7.00.

How did the pIC50 turn out when `OC(c1cc(-c2cscn2)c2oc(N3CC4CCC(C3)N4)nc2c1OC(F)(F)F)C(F)F` (centres unmarked) [Example 303, 1-(2-(3,8-Diazabicyclo[3.2.1]octan-3-yl)-7-(thiazol-4-yl)-4-(trifluoromethoxy)benzo[d]oxazol-5-yl)-2,2-difluoroethan-1-ol] was run?
Its pIC50 is > 7.00.

How did the pIC50 turn out when `CC(O)c1ccc(-c2nccs2)c2oc(N3CC4CCCC(C3)N4)nc12` (centres unmarked) [Example 239, 1-(2-(3,9-Diazabicyclo[3.3.1]nonan-3-yl)-7-(thiazol-2-yl)benzo[d]oxazol-4-yl)ethan-1-ol] was run?
The pIC50 was > 7.00.
